Test results as given in paper PMC8011931, “Identification, Structure–Activity Relationship, and Biological Characterization of 2,3,4,5-Tetrahydro-1H-pyrido[4,3-b]indoles as a Novel Class of CFTR Potentiators” (Journal of Medicinal Chemistry, 2020).

Biological target: F508del-CFTR (Homo sapiens, UniProt P13569, DEL508-508)
Assay: HS-YFP-based assay for CFTR activity on F508del-CFTR FRT cells rescued at 32 °C for 24 h
Type: cell-based
Design: expressed in transfected cells; key to Emax: fold increase in F508del-CFTR rescue relative to hit 3 (normalized)
Conditions: for EC50: F508del-CFTR FRT cells rescued at 32 °C for 24 h, plus forskolin; for EC50 / Emax (FRT F508del-CFTR): mean ± SD (n = 3–6), n.a.: not active (up to 20 μM); for Emax: supplementary csv, same data as Tables 1–3; for Emax (FRT F508del-CFTR): normalized for the activity of analogue 3
Description: The chemical library was screened in duplicate on a Fischer rat thyroid (FRT) cell line, stably coexpressing F508del-CFTR and the halide-sensitive yellow fluorescent protein, HS-YFP.[23],[34],[35] To overcome the F508del trafficking defect, cells were initially incubated for 24 h at 32 °C and then acutely treated (15–30 min) with a single compound (5 μM) in combination with forskolin (10 μM). After stimulation, the F508del-CFTR activity in the plasma membrane was calculated by measuring the rate of fluorescence quenching arising from iodide influx.[34] This activity was compared to that of wells containing forskolin alone (negative control) or forskolin plus VX-770 (1 μM, as a positive control) (Figure 2A). Analysis of screening performance with the Z′ method gave a score of 0.6, which can be considered optimal for this type of assay. The activity scores for each compound were then plotted as an ordered distribution (Figure 2B). All compounds whose average activity calculated from the two rounds of screening was greater than 185% with respect to the negative control (i.e., forskolin alone) were considered as primary hits.
The primary hits were confirmed by testing them at different concentrations, in order to extrapolate the dose–response relationship. First, we focused on the F508del mutant. The compounds were tested in the low micromolar range, in the presence of forskolin (10 μM), on F508del-CFTR FRT cells following rescue of the trafficking defect by low-temperature incubation, as done for the primary screening. The most interesting hits were subsequently tested for their ability to overcome the more severe gating defect of pure class III mutant using FRT cells stably expressing G551D-CFTR (Figure 3B).
The role of the heteroaryl group (A) acylating the position 2 of the tetrahydro-γ-carboline was initially explored by modifying the substituent on the pyrazolyl residue and replacing the pyrazole with other rings, while keeping the 8-methoxy carboline moiety unmodified. The activity of each compound is described in terms of normalized maximal efficacy (Emax), the maximum fold increase in the rescue of F508del-CFTR activity with respect to hit 3, and potency (EC50), the concentration producing half-maximal efficacy.
FRT cells stably expressing mutant F508del-CFTR or G551D-CFTR and the halide-sensitive yellow fluorescent protein (HS-YFP) YFP-H148Q/I152L and CFBE41o-cells stably expressing F508del-CFTR and HS-YFP were generated as previously described.[21],[57] FRT cells were cultured using the Coon’s modification of Ham’s F12 medium, while CFBE41o-cells were cultured in the modified Eagle’s medium. Media were supplemented with 10% fetal calf serum, 2 mM L-glutamine, 100 U/mL of penicillin, and […] of streptomycin. For functional assays of CFTR activity based on the HS-YFP assays, CFBE41o- or FRT cells were plated (50,000 cells/well) on clear-bottom 96-well black microplates (Corning Life Sciences, Acton, MA). The following day, cells were assayed. In the case of FRT cells expressing F508del-CFTR, plates were kept at 32 °C (or treated with correctors at 37 °C where indicated) for an additional 24 h to rescue the mutant trafficking defect, before assays.
Prior assay, cells were washed with phosphate-buffered saline (PBS) containing (in mM) 137 NaCl, 2.7 KCl, 8.1 Na2HPO4, 1.5 KH2PO4, 1 CaCl2, and 0.5 MgCl2. Cells were then incubated for 25 min with 60 μL of PBS plus forskolin (20 μM) and test compounds (at the desired concentration) to stimulate mutant CFTR. Cells were then transferred to microplate readers (FluoStar Optima; BMG Labtech, Offenburg, Germany) for CFTR activity determination. The plate readers were equipped with high-quality excitation (HQ500/20X: 500 ± 10 nm) and emission (HQ535/30M: 535 ± 15 nm) filters for YFP (Chroma Technology). […]

Sequence of F508del-CFTR (P13569 with tags, fused parts or gaps DEL508-508): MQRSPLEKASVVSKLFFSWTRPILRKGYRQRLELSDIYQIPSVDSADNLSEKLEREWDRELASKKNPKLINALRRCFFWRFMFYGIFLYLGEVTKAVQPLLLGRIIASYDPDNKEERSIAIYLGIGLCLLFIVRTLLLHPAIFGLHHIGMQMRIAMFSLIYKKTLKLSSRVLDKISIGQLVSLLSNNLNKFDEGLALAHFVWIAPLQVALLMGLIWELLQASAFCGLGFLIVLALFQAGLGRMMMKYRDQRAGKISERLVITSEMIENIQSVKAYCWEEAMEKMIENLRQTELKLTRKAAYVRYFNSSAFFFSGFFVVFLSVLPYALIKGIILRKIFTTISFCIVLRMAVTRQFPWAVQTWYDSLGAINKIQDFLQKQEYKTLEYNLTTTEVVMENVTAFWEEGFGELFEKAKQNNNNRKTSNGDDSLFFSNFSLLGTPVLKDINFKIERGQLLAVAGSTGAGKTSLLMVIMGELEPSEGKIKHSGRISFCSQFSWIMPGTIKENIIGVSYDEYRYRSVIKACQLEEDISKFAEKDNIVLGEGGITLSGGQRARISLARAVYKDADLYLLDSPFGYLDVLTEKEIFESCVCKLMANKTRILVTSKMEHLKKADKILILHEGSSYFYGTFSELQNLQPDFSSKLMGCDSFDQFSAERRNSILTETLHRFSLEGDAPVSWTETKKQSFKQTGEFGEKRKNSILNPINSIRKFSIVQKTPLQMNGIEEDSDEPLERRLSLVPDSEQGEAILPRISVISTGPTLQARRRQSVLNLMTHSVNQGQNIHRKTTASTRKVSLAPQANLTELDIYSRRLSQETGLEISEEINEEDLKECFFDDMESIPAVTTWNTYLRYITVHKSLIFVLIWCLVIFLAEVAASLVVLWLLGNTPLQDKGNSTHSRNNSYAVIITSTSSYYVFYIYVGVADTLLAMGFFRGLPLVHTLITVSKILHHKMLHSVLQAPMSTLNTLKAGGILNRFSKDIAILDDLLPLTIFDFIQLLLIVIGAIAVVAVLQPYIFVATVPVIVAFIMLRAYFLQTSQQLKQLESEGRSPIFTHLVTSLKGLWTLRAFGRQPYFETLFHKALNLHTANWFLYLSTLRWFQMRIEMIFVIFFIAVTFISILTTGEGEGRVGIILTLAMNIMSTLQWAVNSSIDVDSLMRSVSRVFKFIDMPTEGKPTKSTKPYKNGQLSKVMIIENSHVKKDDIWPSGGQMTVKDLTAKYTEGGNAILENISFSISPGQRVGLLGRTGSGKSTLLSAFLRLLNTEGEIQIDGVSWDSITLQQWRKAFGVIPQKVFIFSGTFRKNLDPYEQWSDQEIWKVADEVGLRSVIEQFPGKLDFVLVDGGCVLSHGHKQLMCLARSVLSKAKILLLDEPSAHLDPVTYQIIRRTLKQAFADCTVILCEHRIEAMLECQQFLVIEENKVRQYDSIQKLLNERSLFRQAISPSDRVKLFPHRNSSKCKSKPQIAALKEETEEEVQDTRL

Row | EC50 [µM] | Emax | Emax (FRT F508del-CFTR) | fold drop in potency with respect to 20 (EC50, F508del-CFTR FRT cells) [fold] | Compound
1 | 0.03 ± 0.02 | 1.0 ± 0.3 |  |  | Cc1ccc(F)c2[nH]c3c(c12)C(C)N(C(=O)c1cc(C(F)(F)F)[nH]n1)CC3 (racemic) [Compound 32, (±)-(6-Fluoro-1,9-dimethyl-1,3,4,5-tetrahydro-2H-pyrido[4,3-b]indol-2-yl)-(5-(trifluoromethyl)-1H-pyrazol-3-yl)methanone]
2 | 0.48 ± 0.05 | 0.97 ± 0.11 |  |  | O=C(c1cc(C(F)(F)F)[nH]n1)N1CCc2[nH]c3ccc(F)cc3c2C1 [Compound 19, (8-Fluoro-1,3,4,5-tetrahydro-2H-pyrido[4,3-b]indol-2-yl)(5-(trifluoromethyl)-1H-pyrazol-3-yl)methanone]
3 | 0.15 ± 0.02 | 0.91 ± 0.12 | 0.91 ± 0.12 |  | COc1ccc2[nH]c3c(c2c1)CN(C(=O)c1cc2ccc(N(C)C)cc2[nH]1)CC3 [Compound 10, (8-Methoxy-1,3,4,5-tetrahydro-2H-pyrido[4,3-b]indol-2-yl)-(6-(dimethylamino)-1H-indol-2-yl)methanone]
4 | 4.1 ± 1.3 | 0.79 ± 0.13 |  |  | O=C(c1cnn(-c2ccccc2)c1)N1CCc2[nH]c3ccccc3c2C1 [Compound 2, (1-Phenyl-1H-pyrazol-4-yl)-(1,3,4,5-tetrahydro-2H-pyrido[4,3-b]indol-2-yl)methanone]
5 | 1.4 ± 0.9 | 0.69 ± 0.09 |  |  | CC(C)c1ccc2[nH]c3c(c2c1)CN(C(=O)c1cc(C(F)(F)F)[nH]n1)CC3 [Compound 18, (8-Isopropyl-1,3,4,5-tetrahydro-2H-pyrido[4,3-b]indol-2-yl)-(5-(trifluoromethyl)-1H-pyrazol-3-yl)methanone]
6 | 0.57 ± 0.14 | 0.94 ± 0.13 |  | 6 | O=C(c1cc(C(F)(F)F)[nH]n1)N1CCc2[nH]c3c(F)cc(C(F)(F)F)cc3c2C1 [Compound 28, (6-Fluoro-8-trifluoromethyl-1,3,4,5-tetrahydro-2H-pyrido[4,3-b]indol-2-yl)-(5-(trifluoromethyl)-1H-pyrazol-3-yl)methanone]
7 | 0.44 ± 0.06 | 0.95 ± 0.04 |  |  | O=C(c1cc(C(F)(F)F)[nH]n1)N1CCc2[nH]c3ccc(C(F)(F)F)cc3c2C1 [Compound 21, (8-(Trifluoromethyl)-1,3,4,5-tetrahydro-2H-pyrido[4,3-b]indol-2-yl)-(5-(trifluoromethyl)-1H-pyrazol-3-yl)methanone]
8 | 2.8 ± 0.8 | 0.59 ± 0.14 |  |  | COc1ccc2[nH]c3c(c2c1)CN(C(=O)c1c[nH]c(C(F)(F)F)n1)CC3 [Compound 8, (8-Methoxy-1,3,4,5-tetrahydro-2H-pyrido[4,3-b]indol-2-yl)-(2-(trifluoromethyl)-1H-imidazol-4-yl)methanone]
9 | 0.27 ± 0.09 | 0.95 ± 0.11 |  |  | Cc1ccc2[nH]c3c(c2c1)CN(C(=O)c1cc(C(F)(F)F)[nH]n1)CC3 [Compound 14, (8-Methyl-1,3,4,5-tetrahydro-2H-pyrido[4,3-b]indol-2-yl)-(5-(trifluoromethyl)-1H-pyrazol-3-yl)methanone]
10 | 0.15 ± 0.07 | 0.66 ± 0.12 |  |  | O=C(c1cc(C(F)(F)F)[nH]n1)N1CCc2[nH]c3c(F)cc(F)cc3c2C1 [Compound 27, (6,8-Difluoro-1,3,4,5-tetrahydro-2H-pyrido[4,3-b]indol-2-yl)-(5-(trifluoromethyl)-1H-pyrazol-3-yl)methanone]
11 | 10.6 ± 1.3 | 0.17 ± 0.03 | 0.17 ± 0.03 |  | COc1ccc2[nH]c3c(c2c1)CN(C(=O)c1cc[nH]n1)CC3 [Compound 4, (8-Methoxy-1,3,4,5-tetrahydropyrido[4,3-b]indol-2-yl)-(1H-pyrazol-3-yl)methanone]
12 | 10.5 ± 2.2 | 0.28 ± 0.04 |  |  | CS(=O)(=O)c1ccc2[nH]c3c(c2c1)CN(C(=O)c1cc(C(F)(F)F)[nH]n1)CC3 [Compound 24, (8-(Methylsulfonyl)-1,3,4,5-tetrahydro-2H-pyrido[4,3-b]indol-2-yl)-(5-(trifluoromethyl)-1H-pyrazol-3-yl)methanone]
13 | 0.16 ± 0.03 | 0.89 ± 0.03 | 0.89 ± 0.03 |  | O=C(c1cc(C(F)(F)F)[nH]n1)N1CCc2[nH]c3ccc(OC(F)(F)F)cc3c2C1 [Compound 22, (8-(Trifluoromethoxy)-1,3,4,5-tetrahydro-2H-pyrido[4,3-b]indol-2-yl)-(5-(trifluoromethyl)-1H-pyrazol-3-yl)methanone]
14 | 0.2 ± 0.06 | 0.22 ± 0.04 |  |  | Cc1ccc2c3c([nH]c2c1)CCN(C(=O)c1cc(C(F)(F)F)[nH]n1)C3 [Compound 16, (7-Methyl-1,3,4,5-tetrahydro-2H-pyrido[4,3-b]indol-2-yl)-(5-(trifluoromethyl)-1H-pyrazol-3-yl)methanone]

Row | Compound | EC50 [µM] | Emax | Emax (FRT F508del-CFTR) | fold drop in potency with respect to 20 (EC50, F508del-CFTR FRT cells) [fold]
15 | Cc1ccc(F)c2[nH]c3c(c12)C1CCC(C3)N1C(=O)c1cc(C(F)(F)F)[nH]n1 (racemic) [Compound 35, (±)-(4-Fluoro-1-methyl-5,6,7,8,9,10-hexahydro-7,10-epiminocyclohepta[b]indol-11-yl)-(5-(trifluoromethyl)-1H-pyrazol-3-yl)methanone] | 1.3 ± 0.3 | 0.82 ± 0.07 |  | 
